Results from PubChem BioAssay AID328 (DTP/NCI, 2004).
“And” between values parts separate entries of the source, which are not always exact repeats. Equal values may be shown once. Toxic doses and inconclusive results are not listed. How the source made its calls: active means survival T/C of 150% or more; inactive means T/C below 125% in these data.

Test system: BDF1 mice, P388 leukemia ip, median survival T/C
Experiment: NCI In Vivo Anticancer Drug Screen. Data for tumor model P388 Leukemia (intraperitoneal) in B6D2F1 (BDF1) mice
Settings: endpoint: median survival time, higher = longer survival
In short: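 Survival ratio, drug arm over vehicle arm, in mice with a transplanted tumour.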

[1] = dose: 12.5 mg/kg/injection, schedule: Q01DX009 (ip), vehicle: saline with Tween-80
[2] = dose: 25.0 mg/kg/injection, schedule: Q01DX009 (ip), vehicle: saline with Tween-80
[3] = dose: 50.0 mg/kg/injection, schedule: Q01DX009 (ip), vehicle: saline with Tween-80
[4] = dose: 100.0 mg/kg/injection, schedule: Q01DX009 (ip), vehicle: saline with Tween-80
[5] = dose: 100.0 mg/kg/injection, schedule: Q04DX003 (ip), vehicle: Klucel (hydroxypropylcellulose) (HPC)
[6] = dose: 200.0 mg/kg/injection, schedule: Q04DX003 (ip), vehicle: Klucel (hydroxypropylcellulose) (HPC)

Measured: T/C

CN(C)c1ccc(/C=C/c2ccccn2)cc1
inactive: [1] 95 % of control | [2] 95 % of control

COc1ccc(/C=C/c2ccc3ccccc3n2)c(OC)c1
inactive: dose: 100.0 mg/kg/injection, schedule: Q04DX003 (ip), vehicle: saline with Tween-80 88 % of control | dose: 200.0 mg/kg/injection, schedule: Q04DX003 (ip), vehicle: saline with Tween-80 100 % of control

O=C(Nc1ccc(Cl)c(Cl)c1)Nc1cc(Cl)ccc1Sc1ccc(Cl)cc1S(=O)(=O)O
inactive: [2] 109 % of control | [3] 95 % of control | [4] 90 % of control

O=C(O)c1ccc(C(Cl)(Cl)Cl)cc1
inactive: dose: 18.75 mg/kg/injection, schedule: Q01DX009 (ip), vehicle: Klucel (hydroxypropylcellulose) (HPC) 95 % of control | dose: 33.0 mg/kg/injection, schedule: Q01DX009 (ip), vehicle: saline with Tween-80 116 % of control | [3] 112 % of control | dose: 75.0 mg/kg/injection, schedule: Q01DX009 (ip), vehicle: saline with Tween-80 108 % of control | dose: 150.0 mg/kg/injection, schedule: Q01DX009 (ip), vehicle: saline with Tween-80 123 % of control

CC(=O)Oc1cc(-c2ccccc2)c(OC(C)=O)cc1-c1ccccc1
inactive: dose: 6.25 mg/kg/injection, schedule: Q01DX009 (ip), vehicle: water 109 % of control | dose: 12.5 mg/kg/injection, schedule: Q01DX009 (ip), vehicle: water 95 % of control | dose: 12.5 mg/kg/injection, schedule: Q04DX003 (ip), vehicle: water 89 % of control | dose: 25.0 mg/kg/injection, schedule: Q01DX009 (ip), vehicle: water 93 % of control | dose: 25.0 mg/kg/injection, schedule: Q04DX003 (ip), vehicle: water 89 % of control and 95 % of control | dose: 50.0 mg/kg/injection, schedule: Q01DX009 (ip), vehicle: water 92 % of control | dose: 50.0 mg/kg/injection, schedule: Q04DX003 (ip), vehicle: water 91 % of control and 98 % of control | dose: 100.0 mg/kg/injection, schedule: Q01DX009 (ip), vehicle: water 94 % of control | dose: 100.0 mg/kg/injection, schedule: Q04DX003 (ip), vehicle: water 89 % of control and 95 % of control | dose: 200.0 mg/kg/injection, schedule: Q01DX009 (ip), vehicle: water 102 % of control | dose: 300.0 mg/kg/injection, schedule: Q01DX009 (ip), vehicle: water 107 % of control | dose: 400.0 mg/kg/injection, schedule: Q01DX009 (ip), vehicle: water 91 % of control

COC(=O)c1cc(=O)n(-c2cccc(F)c2)c(SC)n1
inactive: [5] 114 % of control | [6] 114 % of control

CC(C)c1nsc(N)c1C(N)=O
inactive: [3] 92 % of control | [4] 96 % of control

CC(=O)NNC(=O)c1ccccc1
inactive: dose: 12.0 mg/kg/injection, schedule: Q04DX003 (ip), vehicle: Klucel (hydroxypropylcellulose) (HPC) 104 % of control | dose: 25.0 mg/kg/injection, schedule: Q04DX003 (ip), vehicle: Klucel (hydroxypropylcellulose) (HPC) 100 % of control | dose: 50.0 mg/kg/injection, schedule: Q01DX009 (ip), vehicle: Klucel (hydroxypropylcellulose) (HPC) 87 % of control | dose: 50.0 mg/kg/injection, schedule: Q04DX003 (ip), vehicle: Klucel (hydroxypropylcellulose) (HPC) 104 % of control | dose: 75.0 mg/kg/injection, schedule: Q01DX009 (ip), vehicle: Klucel (hydroxypropylcellulose) (HPC) 105 % of control | dose: 75.0 mg/kg/injection, schedule: Q04DX003 (ip), vehicle: Klucel (hydroxypropylcellulose) (HPC) 100 % of control | dose: 100.0 mg/kg/injection, schedule: Q01DX009 (ip), vehicle: Klucel (hydroxypropylcellulose) (HPC) 87 % of control | [5] 90 % of control | dose: 150.0 mg/kg/injection, schedule: Q01DX009 (ip), vehicle: Klucel (hydroxypropylcellulose) (HPC) 110 % of control | dose: 200.0 mg/kg/injection, schedule: Q01DX009 (ip), vehicle: Klucel (hydroxypropylcellulose) (HPC) 91 % of control | [6] 95 % of control and 100 % of control | dose: 400.0 mg/kg/injection, schedule: Q04DX003 (ip), vehicle: Klucel (hydroxypropylcellulose) (HPC) 109 % of control and 118 % of control

N=C(N)c1ccc(N=C(N)Nc2ccc(C(=N)N)cc2)cc1
inactive: dose: 50.0 mg/kg/injection, schedule: Q01DX009 (ip), vehicle: saline 118 % of control

O=C(O)C1CCC[N-]C1.O=C(O)C1CCC[N-]C1.[Cl][Pt+2][Cl] (centres undefined)
inactive: dose: 5.0 mg/kg/injection, schedule: Q04DX003 (ip), vehicle: saline 95 % of control | dose: 10.0 mg/kg/injection, schedule: Q04DX003 (ip), vehicle: saline 86 % of control | dose: 20.0 mg/kg/injection, schedule: Q04DX003 (ip), vehicle: saline 95 % of control

CC1CCCCC1(O)CSc1ccccc1 (centres undefined)
inactive: [1] 100 % of control and 106 % of control | [2] 102 % of control and 116 % of control | [3] 103 % of control and 113 % of control | [4] 116 % of control (2×) and 124 % of control | dose: 200.0 mg/kg/injection, schedule: Q01DX009 (ip), vehicle: saline with Tween-80 101 % of control
